We go through three molecules from patent US20060178342A1, “Hyaluronan as a cytotoxic agent, drug pre-sensitizer and chemo-sensitizer in the treatment of disease” (priority 2001, published 2006).

One may read the IC50 as the point on the concentration scale where inhibition reaches its midpoint. One may read the LD50 as the dose expected to kill half of the subjects tested. Read a high LD50 as lower toxicity.

The nature of data set [1]: 6-week study: treatment toxicity (body mass, blood, organ mass, survival). As to conditions: 30 mg/kg 5-FU.
The nature of data set [2]: 14-week study: treatment toxicity and weight. The note with it: 50 mg/kg weekly.
For a further data set, the system named is LIM 1215. The data set is described as follows: Drug cytotoxicity assay, Camptosar ± 100 nM hyaluronan. The class given is cell-based. As to conditions: Homo sapiens, LIM1215; 48 hours continuous exposure; HyCAMP = Camptosar + 100 nM hyaluronan. From the text:
(§1) Human Colon Carcinoma Cell Lines HT-29, HCT-116, SK-CO-1, SW620, SW1222 were obtained from the Peter MacCallum, Cancer Institute, Melbourne. […] Human colon carcinoma cell lines 1215 and LIM2099 were kindly donated by Dr R Whitehead, Ludwig Institute, Melbourne. […] The various concentrations of Camptosar were achieved by diluting in the appropriate amount of growth media The HCT-116, HT-29, SK-CO-1, LIM1215, LIM2099, SW620 and SW1222 cell lines were routinely grown to 80% confluency. The cells were removed from the culture flask and counted using the haematocytometer. The cells HT-29, HCT-116, SK-CO-1, SW620 and SW1222 were resuspended to 15,000 cells/ml of cell-specific media. The LIM1215 and LIM2099 were resuspended to 30,000 cells/ml of cell-specific media. The cells were plated into 48 well culture plates (1 cm^2 surface area) by adding 1 ml of cell suspension per well. The cells were allowed to attach overnight prior to exposure to the test media. The cells were continuously exposed to the following concentrations of test media: 0 μg/ml, 0.25 μg/ml, 0.5 μg/ml, 1 μg/ml, 5 μg/ml, 25 μg/ml and 50 μg/ml Camptosar±100 nM hyaluronan (Modal Mw 850,000). The cells were continuously incubated with the test media for 48 hours. On the day of analysis, the cells were washed with Hanks Balanced Salt Solution. Subsequently, the cells were removed by trypsinization with 0.25% trypsin/EDTA. An aliquot of the trypsinized cell suspension was counted by the Coulter Counter. The raw duplicate or triplicate counts per well were obtained from the Z2 coulter counter. The counts will be averaged and will be expressed as percentage of no drug control.

In another data set the test system is HT-29. The description is as above. As to conditions: Homo sapiens, 48 hours continuous exposure, HyCAMP = Camptosar + 100 nM hyaluronan. It is filed as cell-based.
Excerpt: as §1

The test system of the next data set is SK-CO-1. Described as above. The class given is cell-based. The note with it: Homo sapiens, 48 hours continuous exposure, HyCAMP = Camptosar + 100 nM hyaluronan.
Excerpt: as §1

For a further data set, the system named is SW1222. The description is as above. The class given is cell-based. The note with it: Homo sapiens, 48 hours continuous exposure, HyCAMP = Camptosar + 100 nM hyaluronan.
Excerpt: as §1

A further data set relates to HCT-116. The data set is described as above. As to conditions: Homo sapiens, 48 hours continuous exposure, HyCAMP = Camptosar + 100 nM hyaluronan. It is filed as cell-based.
Excerpt: as §1

The next data set concerns LIM 2099. Described as above. The class given is cell-based. As to conditions: Homo sapiens; 48 hours continuous exposure; HyCAMP = Camptosar + 100 nM hyaluronan.
Excerpt: as §1

In a further data set the test system is SW 620. Described as above. It is filed as cell-based. As to conditions: Homo sapiens, 48 hours continuous exposure, HyCAMP = Camptosar + 100 nM hyaluronan.
Excerpt: as §1

A short description of data set [3]: In vivo toxicology, daily iv Camptosar or HyCAMP. The note with it: for immediate neurological toxicity, early or late on-set diarrhea: Camptosar or HyCAMP; for LD50: iv.
In data set [4] the test system is Human LIM1215 colon cancer xenografts. Nature of the data set: 14-week efficacy study, irinotecan ± HA in colon cancer xenografts. The class given is in vivo, mouse. As to conditions: 50 mg/kg weekly; listed as irinotecan, hydrochloride. From the text: Human LIM1215 colon cancer xenografts were inoculated into the mammary fat pad of athymic […] nude mice. Mice were randomly distributed into eight treatment groups (8 mice per group).
The treatment regime comprised of injections on Day 1 of a 7-day cycle for duration of fourteen weeks. Primary tumor volume, animal body mass, energy levels and food consumption were monitored three times weekly.
Athymic CBA/WEHI nude female mice (Walter and Eliza Hall Research Institute, Melbourne, Australia), 6 to 8 weeks old, were maintained under specific pathogen-free conditions, with sterilized food and water available ad libitum. Each mouse received one injection containing 1×10^7 cells in 50-100 μl. […]
Any animals with a tumor volume expressed as a percentage of body weight outside 0.25±0.10 (mean±1 SD) were excluded from data analysis. […]
The experimental end-point for each animal occurred either when the animal had to be euthanized due to a high degree of disease progression or when the 14-week study had been completed. The animals were monitored three times weekly and the following criteria were established to determine whether an animal had reached the experimental end point: tumour mass is greater than 10% of the animals total body mass; the animal is metabolically stressed (i.e. losing weight); or the animal is immobilized.

For data set [5] the following is noted: substance implied by list of adriamycin groups; cited from earlier work.
In data set [6] the test system is human breast cancer cells. The data set is described as follows: Breast cancer cell count assay, cell line not specified or pooled. The class given is cell-based. The note with it: Homo sapiens; cell line not stated; read-out: IC50 of adriamycin. The procedure: The cell suspensions were counted with an automated cell counter (ZM-2 Coulter Counter) by adding 15 mL saline+0.2 ml of cell suspension. • Cells were resuspended to a number of: […] The cell suspensions were counted with an automated cell counter (ZM-2 Coulter Counter) by adding 15 mL saline+0.2 ml of cell suspension. Results were expressed as % of no drug control which was calculated as: […]

Counter-ions that a name gives are not always drawn.

As for `O=c1[nH]cc(F)c(=O)[nH]1` [5-FU, 5-fluorouracil, reference compound], in [1], the “shrinkage of the uterus” value was 22%. Besides, in data set [1] (vs saline group), the “enlarged spleen, increase in mass” value stood at 61%.
In the case of `CCc1c2c(nc3ccc(OC(=O)N4CCC(N5CCCCC5)CC4)cc13)-c1cc3c(c(=O)n1C2)COC(=O)[C@]3(O)CC` [Camptosar, irinotecan hydrochloride], in [2], the “degree of observed weight loss, irinotecan vs HyCAMP groups” value was “comparable”. Besides, the IC50 stood at 16 µM with LIM 1215; 16 µM in the data set with HT-29; 5 µM in the data set with SK-CO-1; 32 µM in the data set on SW1222; 1.5 µM in the data set with HCT-116; 31 µM in the data set with LIM 2099. Moreover, in the data set with SW 620, the half-inhibitory concentration (IC50) amounted to 10 µM. For the same molecule, the “accumulative dose received without severe adverse effects” value in data set [3] (25 mg/kg daily iv) was determined as 350 mg/kg. Moreover, in [3] (25 mg/kg daily iv), the “body weight lost compared to HyCAMP group” value stood at 18%. Moreover, the survival time in data set [3] (25 mg/kg daily iv (HyCAMP: + 13.3 mg/kg HA)) is 14 days; in data set [3] (50 mg/kg daily iv), not above 12 days; in [3] (100 mg/kg daily iv), not above 7 days. In addition, the “immediate neurological toxicity, early or late on-set diarrhea” value is “did not exhibit any immediate neurological toxicity, early or late on-set diarrhea” in [3] (25 mg/kg daily iv) and “did not exhibit any immediate neurological toxicity, early or late on-set diarrhea” in data set [3] (50 mg/kg daily iv). Besides, the diarrhea grade in data set [3] (100 mg/kg daily iv) was 2-3 Grade. The “onset of neurological effects after injection” value in data set [3] (100 mg/kg iv), in data set [3] (150 mg/kg iv) and in data set [3] (200 mg/kg iv) was 30 seconds each time. Also, the “time to fully recuperate from neurological effects” value in data set [3] (100 mg/kg iv) amounted to 5 h. Moreover, the “recuperation from neurological effects” value in data set [3] (150 mg/kg iv) and in data set [3] (200 mg/kg iv) was “did not recuperate” each time. Also, in data set [3] (50-100 mg/kg), the “organ mass compared to HyCAMP treatment group” value is “significant increase in the mass of the stomach, lungs, spleen and brain”. In addition, the LD50 at 14 days in data set [3] (male, F1 CBAXC57 (out-bred), mouse, in vivo, intravenous) was in the range of 475 to 550 mg/kg. In addition, the 50% lethal dose (LD50) in [3] (male, F1 CBAXC57 (out-bred), mouse, in vivo, 50 mg/kg) came to 475 mg/kg; in [3] (male, F1 CBAXC57 (out-bred), mouse, in vivo, 100 mg/kg), 550 mg/kg. Besides, in data set [3] (single bolus iv), the lethal dose was more than 100 mg/kg. Also, the “population survival to the end of the 14-week study” value in data set [4] is reported as “approximately 57%”.
As for `COc1cccc2c1C(=O)c1c(O)c3c(c(O)c1C2=O)C[C@@](O)(C(=O)CO)C[C@@H]3O[C@H]1C[C@H](N)[C@H](O)[C@H](C)O1` [adriamycin, doxorubicin, reference compound], in data set [5], the “Mouse LD50” value is 10 mg/kg. Further, the IC50 in [6] is 0.09 µM.
